Reference: patent US20240165173A1, “METHOD OF REDUCING URIC ACID BY USING LACTOBACILLUS PARACASEI LT12” (priority 2022, published 2024)
Several values for one entry are separate records, joined by “and”; a condition that tells them apart may be missing. Equal values may be shown once.

How the values were obtained:
[1] = tested on: xanthine oxidase (XOD); format: in vivo, ICR mice; conditions: mice of the high uric acid model, after interference
Description: Tested animals are 5-week old male ICR mice purchased from Shanghai JSJ Laboratory Animal Co., Ltd., SPF grade. All mice were grown under the conditions of a temperature of 24±2° C., alternating 12 h light and 12 h dark, and free feeding and drinking for adaptation. After 1 week of adaptation, mice were randomly grouped into 10 groups, 7 mice in one group. […] Modeling period is two weeks and interfering period is four weeks. During modeling, except for the normal control group, the other groups were subjected to gavage with 300 mg/kg potassium oxonate and hypoxanthine (formulated into a suspension using 0.5% CMC-Na solution) every day for high uric acid modeling. During interference, except for the normal control group, the other groups were subjected to gavage with 300 mg/kg potassium oxonate and hypoxanthine every day for continued modeling. 2 h after modeling, each group of mice were administered at the dose according to FIG. 2. The drug samples for each group were dissolved in saline. […]
The levels of uric acid, creatinine, blood urea nitrogen, lactate dehydrogenase, xanthine oxidase (XOD), oxidative stress levels (glutathione (GSH), superoxide dismutase (SOD), glutathione peroxidase (GSH-Px), malondialdehyde (MDA), inflammatory factors (TNF-alpha, IL-1β, and IL-6)) were detected according to the detection method described in the specification in the kits. […]

[2] = tested on: high uric acid mice model (potassium oxonate and hypoxanthine)
Description: (§1) Tested animals are 5-week old male ICR mice purchased from Shanghai JSJ Laboratory Animal Co., Ltd., SPF grade. All mice were grown under the conditions of a temperature of 24±2° C., alternating 12 h light and 12 h dark, and free feeding and drinking for adaptation. After 1 week of adaptation, mice were randomly grouped into […], 7 mice in one group. The groups are normal control group, model group, positive control group, low dose Lactobacillus paracasei LT12 group, and high dose Lactobacillus paracasei LT12 group (see Table 3). Modeling period is two weeks and interfering period is four weeks. During modeling, except for the normal control group, the other groups were subjected to gavage with 300 mg/kg potassium oxonate and hypoxanthine (formulated into a suspension using 0.5% CMC-Na solution) every day for high uric acid modeling. During interference, except for the normal control group, the other groups were subjected to gavage with 300 mg/kg potassium oxonate and hypoxanthine every day for continued modeling. 2 h after modeling, each group of mice were administered at the dose according to FIG. 2. The drug samples for each group were dissolved in saline. The same amount of saline was administered to normal groups and model group.
(§2) During modeling, blood was collected through cutting the tail to detect changes in serum uric acid every week. At the last two days of the experiment, fresh feces of mice of each group were collected and kept in −20° C. refrigerator. Before sacrifice, mice were fasted for 12 h. The last modeling was conducted. Blood was collected 1 h after modeling followed by sacrifice and dissection. Mice whole blood is placed at 4° C. for 2 h followed by centrifugation at 3000 rpm for 10 min. The serum was aliquoted and stored in −80° C. refrigerator. Mice liver, kidneys, and colon were collected. One of the kidneys was preserved in 4% […] for pathological analysis. Other tissue samples were immediately freezed in liquid nitrogen and stored at −80 ° C. for preservation.
(§3) The levels of uric acid, creatinine, blood urea nitrogen, lactate dehydrogenase, xanthine oxidase (XOD), oxidative stress levels (glutathione (GSH), superoxide dismutase (SOD), glutathione peroxidase (GSH-Px), malondialdehyde (MDA), inflammatory factors (TNF-alpha, IL-1β, and IL-6)) were detected according to the detection method described in the specification in the kits. Pathological analysis on renal tissue were completed in corporation with Wuhan Servicebio Technology Co., Ltd., China. Immunoblotting analysis on renal uric acid transporter proteins were conducted according to internal methods in labs.

[3] = tested on: high uric acid mice model (potassium oxonate and hypoxanthine); format: in vivo, ICR mice; parameters: inflammatory cell infiltration (pathological score) / renal tubules hydropic degeneration (pathological score) / renal tubules atrophy (pathological score) / renal tubules dilation (pathological score) / connective tissue proliferation (pathological score) / Protein cast (pathological score): scale not given here
Description: as §1, §2, §3

[4] = after interference for four weeks, gavage, compared with model and normal group
[5] = Positive group, score per mouse 3-1 to 3-7

SMILES: Oc1ncnc2[nH]ncc12 [allopurinol]
- activities of xanthine oxidase in serum and liver [1]: the lowest
- blood urea nitrogen levels [2, 4]: increased
- serum creatinine levels [2, 4]: increased
- serum uric acid levels [2, 4]: reduced to the levels of the normal group
- renal toxicity ([2]; mouse, in vivo): strong renal toxicity was generated
- Protein cast (pathological score) [3, 5]: 1 and 0 (6×)
- connective tissue proliferation (pathological score) [3, 5]: 0 (5×) and 1 (2×)
- inflammatory cell infiltration (pathological score) [3, 5]: 0 (2×) and 1 (5×)
- renal tubules atrophy (pathological score) [3, 5]: 0 (5×) and 1 (2×)
- renal tubules dilation (pathological score) [3, 5]: 0 (3×) and 1 (4×)
- renal tubules hydropic degeneration (pathological score) [3, 5]: 1 (4×) and 0 and 2 (2×)
- Total score (pathological scores of mice kidneys) ([3]; Positive group, sum over 7 mice): 22
- damages in renal tissues ([3]; pathological analysis, high uric acid mice): severe renal damages were caused
